What all share (assay type): in vivo, chicken
The subject of series [1] is SPF white leghorn chickens. As to the kind of experiment: Antigen Capture ELISA (AC-ELISA) for IBDV in tissue homogenates of challenged birds. As to conditions: challenge at 28 d post hatch ± REO S-1133 and/or copper sulfate 1 lb/ton. An excerpt:
On days 4 and 11 post challenge 10 birds were necropsied from each virus challenge group as well as an additional 10 birds from the negative control. Each bird was weighed, bled, and euthanized with CO2 gas. All bursae and proventriculi were scored for the presence of gross lesions during necropsy. The bursa, spleen, and proventriculus were individually weighed and weights recorded. Tissues from each of the first five birds were cut in half, with one half being placed into 10% buffered formalin, and the other half being placed into a sterile sampling bag (Fisher Scientific, Pittsburgh, Pa.). All tissues were pooled by organ and experimental treatment group into the buffered formalin and into the sampling bags. Tissues from the remaining five birds were placed only in the sterile sampling bags. Tissues in sterile sampling bags were frozen at −20° C. for later analysis utilizing Antigen Capture ELISA (AC-ELISA), as described by Snyder et al (11).
Monoclonal antibody B-29 (University of Maryland, College Park, Md., Intervet Inc. , Millsboro, Del.) was diluted 1:10 in ice cold sterile distilled water. The solution was then acidified by the addition of 0.4 N sulfuric acid. The acidified monoclonal solution was incubated in an ice bath for one hour […]. Following incubation the acidified monoclonal antibody was diluted in 200 ml of coating buffer bringing the final dilution of monoclonal antibody to 1:10,000. ELISA optimized 96 well microtiter plates Corning #25805-96 (Corning Glass Works, Corning N.Y. 14831) were coated with 100 μl per well of a 1:10,000 dilution of monoclonal antibody B-29 (University of Maryland, College Park, Md.; Intervet, Inc., Millsboro Del.) ascitic fluid in coating buffer (Appendix). Plates were covered with individual plate sealers (Dynatech, Chantilly Va.), and incubated for 2 hours at 37° C. and then overnight at 4° C. Coated plates were washed three times with washing buffer (Appendix), with residual fluid being tapped out. Plates were allowed to air dry at room temperature and were then covered with individual plate sealers and stored at −20° C. until needed.
Infectious bursal disease virus suspect tissues were homogenized in AC-ELISA dilution buffer (Appendix) at a ratio of 1:5 or approximately 20% tissue weight to volume. Homogenization was accomplished by use of a rubber mallet, followed by the addition of the dilution buffer. One hundred fifty μl of each bursal homogenate and 300 μl of each proventricular homogenate were placed in duplicate in a 96 well round bottom plate. The concentration of the bursa tissue was adjusted by addition of 150 μl of AC-ELISA dilution buffer. There was no additional dilution to the proventriculus tissue homogenates. […]
(In an ELISA, binding on a coated surface is turned into a signal by an enzyme label.)

Series [2] deals with SPF white leghorn chickens. Description: Microscopic (histopathological) lesions in bursa and proventriculus. As to conditions: for Microscopic lesions in the bursa, samples with lesions/screened / Microscopic lesions in the proventriculus, samples with lesions/screened: challenge at 28 d post hatch ± REO S-1133 and/or copper sulfate. The source says:
Tissues were placed in 10% buffered formalin at necropsy. Twenty-four hours later tissues were removed and manually trimmed to a thickness of ⅛ inch and placed in tissue cassettes. Tissues were dehydrated through graded alcohols, and cleared in two changes of toluene. Tissues were then infiltrated with paraffin over a 16-hour period using an autoprocessor. Following paraffin infiltration, tissues were positioned in paraffin blocks and trimmed to expose a uniform tissue face. Prepared tissue blocks were stored at −20° C. until ready to be sectioned. Sections were cut at a thickness of 5μm and floated on a water bath containing 5% gelatin before they were placed on standard 1×3 inch slides. Tissue sections were then stained using the standard method of Harris (41), for hematoxylin and eosin.
Tissues were examined microscopically for the presence of histopathological lesions induced by IBDV infection. […] Lesions in the bursa were predominantly lymphoid depletion with accompanied follicle degeneration Tissues were given a numerical index score based on the presence or absence of lesions as well as the intensity of the lesions. The scores ranged from a low of “0” which indicates no lesions or pathology observed to a high of “4” which indicates extensive tissue damage.
(§1) Tissues were placed in buffered formalin at necropsy, and processed twenty-four hours later by the method described in Section 1 (55). Tissues were examined for the presence of histopathological lesions induced by IBDV infection. Lesions in the lamina propria of the proventriculus were predominantly pleomorphism of the lymphoid cells in the mucosa along with lymphocyte depletion. Lesions in the bursa were predominantly lymphoid depletion with accompanied follicle degeneration.
(§2) Tissues were given a numerical index score based on the presence or absence as well as the intensity of the lesions present. The score ranged from a low of “0” which indicates no lesions or pathology observed to a high of “4” which indicates extensive tissue damage.
Tissues were placed in buffered formalin at necropsy, and processed twenty-four hours later by the method described in Section 1 (55). Tissues were examined for the presence of histopathological lesions induced by IBDV infection. Tissues were given a numerical index score based on the presence or absence as well as the intensity of the lesions present. The score ranged from a low of “0” which indicates no lesions or pathology observed to a high of “4” which indicates extensive tissue damage.
Tissues were placed in buffered formalin at necropsy, and processed twenty-four hours later by the method described in Section 1 (55). Tissues were examined for the presence of histopathological lesions induced by IBDV infection.

Series [3] relates to SPF white leghorn chickens. As to the kind of experiment: Body weight after virus challenge. The source says: (§3) On days 4 and 11 post challenge 10 birds were necropsied from each virus challenge group and an additional 10 birds from the negative control. Each bird was weighed, bled, and euthanized by CO2 asphyxiation. All birds were necropsied at which time the bursa, and proventriculus were scored for the presence of gross lesions. The bursa, spleen, and proventriculus were individually weighed and results recorded. Tissues from each of the birds were cut in half, with one half being placed into 10% buffered formalin, and the other half being placed into a sterile sampling bag (Fisher Scientific, Pittsburgh, Pa.). Tissues in sterile sampling bags were frozen at −20° C. for later analysis utilizing IBDV Antigen Capture ELISA(AC-ELISA), as described by Snyder et al (138).
All data was entered into Microsoft™ Excel (Microsoft Corp., Redmond, Wash.). and were analyzed using SAS (10) (SAS Institute Inc., Cary, N.C.). Statistical significance was determined at the P<0.05 level using General Linear Models Procedure and least squared means for body weight, bursa: body weight ratios, spleen: body weight ratios, and proventriculus: body weight ratios. In addition, statistical differences were determined for means of the numerical index scores for gross lesions in the bursa and proventriculus.

In series [4] the test system is SPF white leghorn chickens. Description: TUNEL staining for apoptotic cells in bursa and proventriculus. Also noted: key: + indicates the presence of specific fluorescence following TUNEL staining; ++: multiple “+'s” indicate visual intensity assessment; +++: multiple “+'s” indicate visual intensity assessment; ++++: multiple “+'s” indicate visual intensity assessment; −: scored as positive when present and negative when absent. As to conditions: 4 days post challenge. The source says:
Formalin fixed tissues from experiments described in Section 3 were utilized in this staining procedure. All tissues utilized were harvested at 4 days post challenge with a 1× concentration of USDA/STC IBDV or Variant E/11084 IBDV. Tissues from specific birds were selected following an initial screening with hematoxylin and eosin stained sections. Tissue preparation and sectioning were as follows. Tissues were placed in 10% buffered formalin at necropsy. Twenty-four hours later tissues were removed, manually trimmed to a thickness of ⅛ inch and placed in tissue cassettes. Tissues were dehydrated through graded alcohols and cleared in two changes of toluene. Tissues were then infiltrated with paraffin over a 16 hour period using an autoprocessor. Following paraffin infiltration, tissues were positioned in paraffin blocks and trimmed to expose a uniform tissue face. Prepared tissue blocks were stored at −20° C. until ready to be sectioned. Sections were cut at a thickness of 5 μm and floated on a water bath containing 5% gelatin to facilitate attachment (55). […]
Tissue sections were prepared as described earlier and removed from storage at 4° C. […] Slides were stored at 4° C. overnight before viewing for the presence of fluorescence. Slides were viewed using an Olympus BX50 microscope equipped with a Olympus PM-C35X camera and Omega dye specific fluorescence filters (DAPI 385-395) (FITC 475-497). […]

Series [5] has as its system commercial broiler chickens. Description: AC-ELISA for IBDV in tissue homogenates of challenged broilers. As to conditions: broilers challenged 35 d post hatch. Here is the method: Broiler chickens were challenged or, day 35 post hatch (PH) with the USDA/STC IBDV prepared inoculum as described previously. Infectious bursal disease virus challenge was administered to each individual bird bilaterally to the eye (30 μl per eye) using an Eppendorf micropipettor (Brinkmann Inc., Westbury, N.Y.) and a sterile pipette tip (Costar Corp., Cambridge, Mass.).
as §3, with “challenge 25” for “challenge 10”, “the bursa” for “the bursa,”
AC-ELISA test plates were prepared as described earlier in Section 1. Tissues were homogenized in AC-ELISA dilution buffer at a ratio of 1:5 tissue weight to volume. Homogenates were analyzed in duplicate against IBDV monoclonal B-29 AC-ELISA plates as described earlier in Section 1. Plates were read and means were calculated for the paired samples within each group and the homogenates were determined to be positive or negative based on the mean absorbance values as compared to the negative and positive controls on each plate.

For series [6], the system named is commercial broiler chickens. Description: Microscopic lesions in bursa and proventriculus of broilers. As to conditions: broilers challenged 35 d post hatch.
Text: as §1, §2

This is an account of results in patent US6406843B1, “Poultry virus isolates and method” (University of Arkansas, priority 1998, dated 2002).

On to `O=S(=O)([O-])[O-].[Cu+2]` [NC + CS, copper sulfate], for which the “AC-ELISA bursal homogenates, positive/tested” value in series [1] (day 4 post challenge), in series [1] (day 11 post challenge), in series [5] (day 4 post challenge) and in series [5] (day 11 post challenge) was 0/10 each time. Further, the “AC-ELISA proventricular homogenates, positive/tested” value in series [1] (day 4 post challenge), in series [1] (day 11 post challenge), in series [5] (day 4 post challenge) and in series [5] (day 11 post challenge) was 0/10 in each case. In addition, the “Microscopic lesions in the bursa, samples with lesions/screened” value in series [2] (day 4 post challenge) and in series [2] (day 11 post challenge) was 0/10 each time. Further, the “Microscopic lesions in the proventriculus, samples with lesions/screened” value in series [2] (day 4 post challenge) and in series [2] (day 11 post challenge) was 0/10 throughout. Besides, the “Lesions in the proventriculus, gross or microscopic” value in series [2] (dietary copper levels used, without virus) is “no lesions in the proventriculus either gross or microscopic”. Also, the “Body weight gain vs negative control” value in series [3] (between day 4 and day 11 post challenge) was “significantly lower”. Besides, in series [3] (day 11 post challenge), the “Day 11 body weight means vs negative control” value was “significantly different”. The “TUNEL staining, bursa” value in series [4] is on record as “−”. In addition, in series [4], the “TUNEL staining, proventriculus” value was “−”. For the same compound, the “Microscopic lesions in the bursa” value was 0/10 in series [6] (day 4 post challenge) and 9/10 in series [6] (day 11 post challenge). Moreover, the “Microscopic lesions in the proventriculus” value in series [6] (day 4 post challenge) and in series [6] (day 11 post challenge) was 0/10 each time.
